The data set in a line: Apparent permeability across apical to basolateral side in MDCK-MDR1 cells measured over 60 mins. In kind it is ADME, cell-based, Canis lupus familiaris. To be noted: dog.

Results on 2 compounds are retold here after ChEMBL document CHEMBL4613288, “Combined Peptide and Small-Molecule Approach toward Nonacidic THIQ Inhibitors of the KEAP1/NRF2 Interaction” (ACS Med Chem Lett, 2020).

Molecules are shown by their SMILES.

In general, Papp A→B refers to the apparent permeability from the apical to the basolateral side of a cell layer. For `O=C(OCc1ccccc1)[C@H]1CCCC[C@H]1C(=O)N1CCc2c(OS(=O)(=O)C(F)(F)F)cccc2C1CN1C(=O)c2ccccc2C1=O` (some centres not stated), the Papp A→B at 1 h stood at 4.6 ×10⁻⁶ cm/s.
As for `O=C(O)[C@H]1CCCC[C@H]1C(=O)N1CCc2c(OCCO)cccc2[C@H]1CN1C(=O)c2ccccc2C1=O`, the apparent permeability from apical to basolateral (Papp A→B) at 1 h amounted to 0.9 ×10⁻⁶ cm/s.
